Experiments:
[1] = Appetite suppression: high fat food consumption in fasted rats (4-Hour and 24-Hour Consumption); assay type: in vivo, Sprague-Dawley rats; conditions: for reduction in effective dose of sibutramine: 30 mg/kg of telenzepine co-administered, effective dose lowered to 1 mg/kg
Excerpt: Appetite Suppression: Three-month-old (300-350 grams) male, Sprague-Dawley rats (individually housed) were used to assess compounds for their appetite suppressant effects. Rats were acclimatized to a “high fat” food diet (BioServ Diet #F3282 or Research Diets #12451) for two weeks prior to testing (access to food and water ad libitum). One day prior to the experiment (at 5:00 PM), food was removed from the cages in order to motivate feeding when the food was returned the following morning (water remained available throughout the experiment). Prior to presentation of the food, rats (n=8-10/dose group) were dosed intraperitoneally (ip) or orally (po) with the compound under investigation, returned to their home cage and immediately given a pre-weighed amount of food. Four hours after administration, the food was removed from the cage, weighed, recorded (4-Hour Consumption) and returned to the rat until the following morning. Twenty-four hours after administration, the remaining food was again weighed and recorded (24-Hour Consumption). Cumulative consumption (expressed in grams) was calculated for both the four and the twenty-four hour intervals. In this assay, vehicle-treated rats typically consume approximately 8 grams over the four-hour interval and approximately 25 grams over the twenty-four-hour interval.
Treatment effects are presented in Table 1 and FIGS. 1-5 (4-Hour Consumption) and Table 2 and FIGS. 6-10 (24-Hour Consumption). The effects are given as both Raw Consumption (in grams ±SEM [1 standard error of the mean]) and as % Reduction in 4-Hour or 24-Hour Consumption=[1-(Consumption following Drug Treatment/Consumption following Vehicle Treatment)]×100%. Similar superscripts in the Dose column of Tables 1 and 2 denote values derived from the same experiment (to facilitate comparisons between individual treatments and co-administrations). Statistical analyses were performed using a 1-way ANOVA (analysis of variance) followed by a Bonferroni multiple comparison test with the overall alpha set at 0.05. In Tables 1 and 2, asterisks (*) denote significant effects compared to vehicle-treated rats, while letters (a or b) denote significant effects compared to rats treated with a single compound (“a” for significance from antidepressant and “b” for significance from telenzepine). In Tables 1 and 2, one symbol denotes p<0.05, two symbols denote p<0.01 and three symbols denote p<0.001). The symbols used for denoting statistical significance may be different in the corresponding figures.

[2] = Reduction in weight gain of rats on a high fat diet (two-week treatment); assay type: in vivo, Sprague-Dawley rats; conditions: for % Reduction: treatment minus vehicle % weight gain
Procedure: Reduction in Weight Gain: Three- to four-month-old (475-550 grams) male, Sprague-Dawley rats (individually housed) were used to assess compounds for their ability to prevent weight gain. At the onset of chronic experiments, rats had been maintained (ad libitum access) on a “high fat” diet (BioServ Diet #F3282 or Research Diets #12451) for approximately one month. Individual body weights and water consumptions were recorded three times per week throughout the duration of the experiment. After approximately two weeks of data collection, rats were counter-balanced to produce treatment groups with equivalent mean body weights. Under isofluorane-induced anesthesia, rats were surgically implanted (subscapular, subcutaneous [sc] placement) with osmotic mini-pumps (Alzet 2mL2) containing the appropriate drug concentration (based on mean body weights and calculated durations of delivery). Alternatively, for studies using the oral route of administration, rats were dosed by gavage daily over 14 days at a volume of 3 mL/kg. Data collection was continued under drug treatment for approximately two more weeks. Change in body weight (expressed in grams) was calculated for the treatment interval. In this assay, vehicle-treated rats typically gain approximately 35-40 grams (+9%) over the two-week interval. Treatment effects are presented in Table 3 as % Weight Gain=[(Body Weight at End of Drug Infusion−Baseline Body Weight)/Baseline Body Weight]×100%, for both Vehicle and Treatment groups; as well as % Reduction=(% Weight Gain for Treatment group−% Weight Gain for Vehicle group). Body weights throughout the treatment period are presented in FIGS. 11-15 as the percentage of baseline body weight. Similar superscripts in the Dose column of Table 3 denote values derived from the same experiment (to facilitate comparisons between individual treatments and co-administrations). Statistical analyses were performed using a 1-way ANOVA (analysis of variance) followed by a Bonferroni multiple comparison test with the overall alpha set at 0.05. In Table 3, asterisks (*) denote significant effects compared to vehicle-treated rats, while letters (a or b) denote significant effects compared to rats treated with a single compound (“a” for significance from antidepressant and “b” for significance from telenzepine). In Table 3, one symbol denotes p<0.05, two symbols denote p<0.01 and three symbols denote p<0.001). The symbols used for denoting statistical significance may be different in the corresponding figures.

[3] = local microinjection; cited from earlier work
[4] = 24 h, 10 mg/kg po, experiment d

## CC(C)CC(N(C)C)C1(c2ccc(Cl)cc2)CCC1 (stereo not drawn) [Sibutramine, sibutramine]
[1]; 4 h, 1 mg/kg po, experiment c
  % Reduction in Consumption: 0%
  Treatment Consumption: 10.1 ± 1.24 g/4 Hrs
[1]; 4 h, 1 mg/kg po, experiment d
  % Reduction in Consumption: 28%
  Treatment Consumption: 4.9 ± 0.68 g/4 Hrs
[1]; 4 h, 3 mg/kg po, experiment c
  % Reduction in Consumption: 23%
  Treatment Consumption: 8.0 ± 1.29 g/4 Hrs
[1]; 4 h, 3 mg/kg po, experiment d
  % Reduction in Consumption: 54%
  Treatment Consumption: 3.2 ± 0.33 g/4 Hrs
[1]; 4 h, 10 mg/kg po, experiment d
  % Reduction in Consumption: 38%
  Treatment Consumption: 4.3 ± 0.61 g/4 Hrs
[1]; 4 hour consumption
  reduction in effective dose of sibutramine: 3 fold
[1]; 24 h, 1 mg/kg po, experiment c
  % Reduction in Consumption: 10%
  Treatment Consumption: 27.4 ± 1.78 g/24 Hrs
[1]; 24 h, 1 mg/kg po, experiment d
  % Reduction in Consumption: 16%
  Treatment Consumption: 20.7 ± 1.05 g/24 Hrs
[1]; 24 h, 3 mg/kg po, experiment c
  % Reduction in Consumption: 28%
  Treatment Consumption: 21.9 ± 1.98 g/24 Hrs
[1]; 24 h, 3 mg/kg po, experiment d
  % Reduction in Consumption: 38%
  Treatment Consumption: 15.4 ± 1.22 g/24 Hrs
[1]; [4]
  % Reduction in Consumption: 52%
  Treatment Consumption: 11.9 ± 1.15 g/24 Hrs
[1]; 24 hour consumption
  reduction in effective dose of sibutramine: 10 fold
[1]; given alone, oral administration required for a significant reduction
  effect on consumption: effective
[2]; 0.3 mg/kg po, experiment d
  Treatment: % Weight Gain: 4.7 ± 0.5%
  % Reduction: −1.7%
[2]; 3 mg/kg po
  Treatment: % Weight Gain: −5.7 ± 1.2%
  % Reduction: −6.0%
[2]; given alone
  reduction of weight gain against vehicle treated controls (reduction from baseline): 6%

## CN(C)CCCC1(c2ccc(F)cc2)OCc2cc(C#N)ccc21 (stereo not drawn) [Citalopram, citalopram]
[1]; 4 h, 25 mg/kg ip, experiment a
  Treatment Consumption: 5.3 ± 0.72 g/4 Hrs
[1]; 4 h, 25 mg/kg ip, experiment a, 25 mg/kg
  % Reduction in Consumption: 31%
[1]; 4 h, 25 mg/kg ip, experiment a, listed as citalopram, 25 mg/kg
  % Reduction in Consumption: 31%
[1]; 24 h, 25 mg/kg ip, experiment a
  Treatment Consumption: 23.0 ± 0.71 g/24 Hrs
[1]; 24 h, 25 mg/kg ip, experiment a, 25 mg/kg
  % Reduction in Consumption: 4%
[1]; 24 h, 25 mg/kg ip, experiment a, listed as citalopram, 25 mg/kg
  % Reduction in Consumption: 4%
[2]; 15 mg/kg sc, experiment a
  Treatment: % Weight Gain: 6.2 ± 1.0%
  % Reduction: −2.4%

## CN1CCN(CC(=O)N2c3ccccc3C(=O)Nc3cccnc32)CC1 [pirenzepine, 5,11-Dihydro-11-[(4-methyl-1-piperazinyl)acetyl]-6H-pyrido[2,3-b][1,4]benzodiazepin-6-one]
[3]
  dopamine efflux in the striatum: decreased dopamine efflux

## CN[C@H]1CC[C@@H](c2ccc(Cl)c(Cl)c2)c2ccccc21 [Sertraline, sertraline]
[1]; 4 h, 10 mg/kg ip, experiment a
  Treatment Consumption: 6.0 ± 0.88 g/4 Hrs
[1]; 4 h, 10 mg/kg ip, experiment a, 10 mg/kg
  % Reduction in Consumption: 21%
[1]; 4 h, 10 mg/kg ip, experiment a, listed as sertraline, 10 mg/kg
  % Reduction in Consumption: 21%
[1]; 4 h, 30 mg/kg ip, experiment a
  Treatment Consumption: 5.6 ± 0.73 g/4 Hrs
[1]; 4 h, 30 mg/kg ip, experiment a, 30 mg/kg
  % Reduction in Consumption: 27%
[1]; 4 h, 30 mg/kg ip, experiment a, listed as sertraline, 30 mg/kg
  % Reduction in Consumption: 27%
[1]; 24 h, 10 mg/kg ip, experiment a
  Treatment Consumption: 23.5 ± 0.71 g/24 Hrs
[1]; 24 h, 10 mg/kg ip, experiment a, 10 mg/kg
  % Reduction in Consumption: 2%
[1]; 24 h, 10 mg/kg ip, experiment a, listed as sertraline, 10 mg/kg
  % Reduction in Consumption: 2%
[1]; 24 h, 30 mg/kg ip, experiment a
  Treatment Consumption: 17.1 ± 1.60 g/24 Hrs
[1]; 24 h, 30 mg/kg ip, experiment a, 30 mg/kg
  % Reduction in Consumption: 28%
[1]; 24 h, 30 mg/kg ip, experiment a, listed as sertraline, 30 mg/kg
  % Reduction in Consumption: 28%
[2]; 5 mg/kg sc
  Treatment: % Weight Gain: 7.2 ± 1.2%
  % Reduction: −2.1%
[2]; 10 mg/kg sc
  Treatment: % Weight Gain: 6.0 ± 0.8%
  % Reduction: −3.1%
[2]; 15 mg/kg of sertraline alone
  reduction in body weight compared to vehicle treated rats: 6.8%
[2]; 15 mg/kg sc, experiment b
  Treatment: % Weight Gain: 2.8 ± 0.8%
  % Reduction: −6.8%
[2]; 20 mg/kg sc
  Treatment: % Weight Gain: 2.8 ± 0.7%
  % Reduction: −3.5%

## CC(C)(N)Cc1ccccc1 [Phentermine, phentermine]
[2]; 4 mg/kg sc, experiment c
  Treatment: % Weight Gain: 4.2 ± 0.6%
  % Reduction: −1.1%

## COc1ccc(C(CN(C)C)C2(O)CCCCC2)cc1 (stereo not drawn) [Venlafaxine, venlafaxine]
[1]; 4 h, 30 mg/kg ip, experiment b
  Treatment Consumption: 6.1 ± 0.84 g/4 Hrs
[1]; 4 h, 30 mg/kg ip, experiment b, 30 mg/kg
  % Reduction in Consumption: 13%
[1]; 4 h, 30 mg/kg ip, experiment b, listed as venlafaxine, 30 mg/kg
  % Reduction in Consumption: 13%
[1]; 24 h, 30 mg/kg ip, experiment b
  Treatment Consumption: 24.9 ± 1.52 g/24 Hrs
[1]; 24 h, 30 mg/kg ip, experiment b, 30 mg/kg
  % Reduction in Consumption: 0%
[1]; 24 h, 30 mg/kg ip, experiment b, listed as venlafaxine, 30 mg/kg
  % Reduction in Consumption: 0%
[2]; 30 mg/kg of venlafaxine alone
  reduction in body weight compared to vehicle treated rats: 0.7%
[2]; 30 mg/kg sc, experiment b
  Treatment: % Weight Gain: 7.4 ± 0.5%
  % Reduction: −0.7%

Source: patent US8748419B2, “Treating obesity with muscarinic receptor M1 antagonists” (priority 2006, dated 2014)
